Assay results reported in patent publication US20060069132A1, “Azolecarboxamide herbicides” (priority 2004, published 2006).

Columns and labels:
barnyardgrass [1] = assay: Test B pre-/postemergence herbicide test; assay type: in vivo, Echinochloa crus-galli
Summary of the method: (§1)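 Flooded paddy rice and barnyardgrass were treated at the 2-leaf stage; upland plantings received compound either on sown seed or on 1- to 4-leaf seedlings. All were kept 13–15 days in a greenhouse and scored visually, 0–100, relative to untreated plants.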

Surinam grass = assay: Test B pre-/postemergence herbicide test; assay type: in vivo, Urochloa decumbens
Summary of the method: (§2)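 Greenhouse pot assay with simultaneous preemergence (treated seed) and postemergence (2–18 cm seedlings) applications of surfactant-containing, non-phytotoxic solvent formulations. Response scored visually 13–15 days later on a 0–100 scale, 100 meaning complete control.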

cocklebur = assay: Test B pre-/postemergence herbicide test; assay type: in vivo, Xanthium strumarium
Summary of the method: as §1

corn = assay: Test B pre-/postemergence herbicide test; assay type: in vivo, Zea mays
Summary of the method: as §2

large crabgrass = assay: Test B pre-/postemergence herbicide test; assay type: in vivo, Digitaria sanguinalis
Summary of the method: as §2

giant foxtail = assay: Test B pre-/postemergence herbicide test; assay type: in vivo, Setaria faberi
Summary of the method: as §2

lambsquarters = assay: Test B pre-/postemergence herbicide test; assay type: in vivo, Chenopodium album
Summary of the method: as §2

morningglory = assay: Test B pre-/postemergence herbicide test; assay type: in vivo, Ipomoea coccinea
Summary of the method: as §1

pigweed = assay: Test B pre-/postemergence herbicide test; assay type: in vivo, Amaranthus retroflexus
Summary of the method: as §2

rice [2] = assay: Test B pre-/postemergence herbicide test; assay type: in vivo, Oryza sativa; conditions: 0 = no effect, 100 = complete control, preemergence; for Rice plant response rating (0 to 100 scale): 125 g ai/ha; for Plant response rating, Rice: 500 g ai/ha, visual rating
Summary of the method: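 Species tested were Echinochloa crus-galli, Ipomoea coccinea, Xanthium strumarium and Oryza sativa, treated both before emergence and at the 1- to 4-leaf stage; rice and barnyardgrass were also tested under flooding at 2 leaves. Greenhouse incubation lasted 13–15 days before visual 0–100 scoring.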

velvetleaf = assay: Test B pre-/postemergence herbicide test; assay type: in vivo, Abutilon theophrasti
Summary of the method: as §2

blackgrass = assay: Test B postemergence herbicide test; assay type: in vivo, Alopecurus myosuroides
Summary of the method: (§3)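 After treating 2-leaf paddy plants or 2–18 cm postemergence plants (1 to 4 leaves) with formulated chemical, researchers kept them in a greenhouse for 13–15 days. Effects were judged visually versus controls: 0 indicates none, 100 total control.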

wheat = assay: Test B postemergence herbicide test; assay type: in vivo, Triticum aestivum; design: key to Wheat plant response rating: 0 = no effect, 100 = complete control
Summary of the method: (§4)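 Treated at 2-leaf (paddy) or 1–4-leaf, 2–18 cm (postemergence); greenhouse 13–15 d; visual score vs control, 0 none to 100 complete control; dash = not tested.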

wild oat = assay: Test B postemergence herbicide test; assay type: in vivo, Avena fatua
Summary of the method: as §4

rice [3] = assay: Test B flooded paddy test; assay type: in vivo, Oryza sativa; conditions: 1000 g ai/ha, scale 0 to 100 (0 no effect, 100 complete control)
Summary of the method: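 Greenhouse test; postemergence application to plants at 1–4 leaves (2–18 cm); paddy species at 2 leaves; evaluated visually vs controls at 13–15 days; scale 0–100 (100 = complete control).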

[4] = system: small flower umbrella sedge; assay: Test B flooded paddy test; assay type: in vivo, Cyperus difformis; conditions: 1000 g ai/ha, scale 0 to 100 (0 no effect, 100 complete control)
Summary of the method: as §3

ducksalad = assay: Test B flooded paddy test; assay type: in vivo, Heteranthera limosa; conditions: 1000 g ai/ha, scale 0 to 100 (0 no effect, 100 complete control)
Summary of the method: as §3

barnyardgrass [5] = assay: Test B flooded paddy test; assay type: in vivo, Echinochloa crus-galli; conditions: 1000 g ai/ha, scale 0 to 100 (0 no effect, 100 complete control)
Summary of the method: as §3

[6] = 125 g ai/ha; 0 = no effect, 100 = complete control; preemergence
[7] = 125 g ai/ha; visual rating, scale 0 (no effect) to 100 (complete control); postemergence
[8] = 500 g ai/ha; visual rating, 0 = no effect, 100 = complete control; preemergence
[9] = postemergence, 500 g ai/ha; scale 0 to 100, 0 is no effect, 100 is complete control
[10] = postemergence, 125 g ai/ha; visual rating, scale 0 (no effect) to 100 (complete control)
[11] = postemergence, 500 g ai/ha; visual rating, scale 0 (no effect) to 100 (complete control)

CCn1nc(C(C)(C)C)cc1C(=O)Nc1cc(OC)ccc1OC [Compound 297]
Barnyardgrass plant response rating (0 to 100 scale) (barnyardgrass [1]; [6]): 0
Barnyardgrass plant response rating (barnyardgrass [1]; [7]): 10
Plant response rating, Barnyardgrass (barnyardgrass [1]; [8]): 20
Barnyardgrass plant response rating (barnyardgrass [1]; [9]): 20
Surinam Grass plant response rating (0 to 100 scale) (Surinam grass; [6]): 10
Surinam Grass plant response rating (Surinam grass; [7]): 20
Plant response rating, Surinam Grass (Surinam grass; [8]): 20
Surinam Grass plant response rating (Surinam grass; [9]): 30
Cocklebur plant response rating (0 to 100 scale) (cocklebur; [6]): 0
Cocklebur plant response rating (cocklebur; [7]): 0
Plant response rating, Cocklebur (cocklebur; [8]): 0
Cocklebur plant response rating (cocklebur; [9]): 0
Corn plant response rating (0 to 100 scale) (corn; [6]): 0
Corn plant response rating (corn; [7]): 10
Plant response rating, Corn (corn; [8]): 0
Corn plant response rating (corn; [9]): 100
Crabgrass, Large plant response rating (0 to 100 scale) (large crabgrass; [6]): 20
Crabgrass, Large plant response rating (large crabgrass; [7]): 20
Plant response rating, Crabgrass, Large (large crabgrass; [8]): 80
Crabgrass, Large plant response rating (large crabgrass; [9]): 30
Foxtail, Giant plant response rating (0 to 100 scale) (giant foxtail; [6]): 10
Foxtail, Giant plant response rating (giant foxtail; [7]): 20
Plant response rating, Foxtail, Giant (giant foxtail; [8]): 60
Foxtail, Giant plant response rating (giant foxtail; [9]): 30
Lambsquarters plant response rating (0 to 100 scale) (lambsquarters; [6]): 0
Lambsquarters plant response rating (lambsquarters; [7]): 10
Plant response rating, Lambsquarters (lambsquarters; [8]): 80
Lambsquarters plant response rating (lambsquarters; [9]): 20
Morningglory plant response rating (0 to 100 scale) (morningglory; [6]): 10
Morningglory plant response rating (morningglory; [7]): 0
Plant response rating, Morningglory (morningglory; [8]): 10
Morningglory plant response rating (morningglory; [9]): 30
Pigweed plant response rating (0 to 100 scale) (pigweed; [6]): 0
Pigweed plant response rating (pigweed; [7]): 0
Plant response rating, Pigweed (pigweed; [8]): 40
Pigweed plant response rating (pigweed; [9]): 40
Rice plant response rating (0 to 100 scale) (rice [2]): 0
Plant response rating, Rice (rice [2]): 10
Velvetleaf plant response rating (velvetleaf; [7]): 0
Plant response rating, Velvetleaf (velvetleaf; [8]): 10
Velvetleaf plant response rating (velvetleaf; [9]): 10
Blackgrass plant response rating (blackgrass; [7]): 10
Blackgrass plant response rating (blackgrass; [9]): 20
Wheat plant response rating (wheat; [7]): 0
Wheat plant response rating (wheat; [9]): 10
Oat, Wild plant response rating (wild oat; [7]): 0
Oat, Wild plant response rating (wild oat; [9]): 20
Rice plant response rating (rice [3]): 20
Sedge, Umbrella plant response rating [4]: 80
Ducksalad plant response rating (ducksalad): 30
Barnyardgrass plant response rating (barnyardgrass [5]): 30

CCN(CC)C(=O)c1cccc(NC(=O)c2nn(C(C)(C)C)cc2Br)c1 [Compound 220]
Barnyardgrass plant response rating (0 to 100 scale) (barnyardgrass [1]; [6]): 0
Plant response rating, Barnyardgrass (barnyardgrass [1]; [8]): 0
Barnyardgrass plant response rating (barnyardgrass [1]; [10]): 0
Barnyardgrass plant response rating (barnyardgrass [1]; [11]): 0
Surinam Grass plant response rating (0 to 100 scale) (Surinam grass; [6]): 0
Plant response rating, Surinam Grass (Surinam grass; [8]): 10
Surinam Grass plant response rating (Surinam grass; [10]): 0
Surinam Grass plant response rating (Surinam grass; [11]): 10
Cocklebur plant response rating (0 to 100 scale) (cocklebur; [6]): 0
Plant response rating, Cocklebur (cocklebur; [8]): 0
Cocklebur plant response rating (cocklebur; [10]): 0
Cocklebur plant response rating (cocklebur; [11]): 10
Corn plant response rating (0 to 100 scale) (corn; [6]): 0
Plant response rating, Corn (corn; [8]): 0
Corn plant response rating (corn; [10]): 10
Corn plant response rating (corn; [11]): 10
Crabgrass, Large plant response rating (0 to 100 scale) (large crabgrass; [6]): 20
Plant response rating, Crabgrass, Large (large crabgrass; [8]): 100
Crabgrass, Large plant response rating (large crabgrass; [10]): 10
Crabgrass, Large plant response rating (large crabgrass; [11]): 10
Foxtail, Giant plant response rating (0 to 100 scale) (giant foxtail; [6]): 0
Plant response rating, Foxtail, Giant (giant foxtail; [8]): 10
Foxtail, Giant plant response rating (giant foxtail; [10]): 0
Foxtail, Giant plant response rating (giant foxtail; [11]): 10
Lambsquarters plant response rating (0 to 100 scale) (lambsquarters; [6]): 0
Plant response rating, Lambsquarters (lambsquarters; [8]): 70
Lambsquarters plant response rating (lambsquarters; [10]): 10
Lambsquarters plant response rating (lambsquarters; [11]): 20
Morningglory plant response rating (0 to 100 scale) (morningglory; [6]): 0
Plant response rating, Morningglory (morningglory; [8]): 0
Morningglory plant response rating (morningglory; [10]): 0
Morningglory plant response rating (morningglory; [11]): 0
Pigweed plant response rating (0 to 100 scale) (pigweed; [6]): 0
Plant response rating, Pigweed (pigweed; [8]): 100
Pigweed plant response rating (pigweed; [10]): 10
Pigweed plant response rating (pigweed; [11]): 10
Rice plant response rating (0 to 100 scale) (rice [2]): 0
Plant response rating, Rice (rice [2]): 0
Velvetleaf plant response rating (0 to 100 scale) (velvetleaf; [6]): 0
Plant response rating, Velvetleaf (velvetleaf; [8]): 0
Velvetleaf plant response rating (velvetleaf; [10]): 0
Velvetleaf plant response rating (velvetleaf; [11]): 0
Blackgrass plant response rating (blackgrass; [10]): 0
Blackgrass plant response rating (blackgrass; [11]): 0
Wheat plant response rating (wheat; [10]): 0
Wheat plant response rating (wheat; [11]): 0
Oat, Wild plant response rating (wild oat; [10]): 0
Oat, Wild plant response rating (wild oat; [11]): 10
Rice plant response rating (rice [3]; visual rating, 13 to 15 days): 0
Sedge, Umbrella plant response rating ([4]; visual rating, 13 to 15 days): 80
Ducksalad plant response rating (ducksalad; visual rating, 13 to 15 days): 40
Barnyardgrass plant response rating (barnyardgrass [5]; visual rating, 13 to 15 days): 0
